For 29 molecules, EC50 results are on record in patent US20220056043A1, “NITROGEN-CONTAINING FUSED CYCLIC COMPOUND, PREPARATION METHOD THEREFOR AND USE THEREOF” (SICHUAN KELUN-BIOTECH BIOPHARMACEUTICAL CO., LTD., priority 2019, published 2022).

For orientation: EC50 means the concentration needed to bring the measured effect to its halfway point. A high value points to weaker potency.

The target of one experiment is T1, hNLRP3 inflammasome (Homo sapiens, UniProt Q96P20).
T1 construct: endogenous in cells; host or cells: THP-1 cells, PMA-differentiated
T1 sequence (Q96P20 whole entry): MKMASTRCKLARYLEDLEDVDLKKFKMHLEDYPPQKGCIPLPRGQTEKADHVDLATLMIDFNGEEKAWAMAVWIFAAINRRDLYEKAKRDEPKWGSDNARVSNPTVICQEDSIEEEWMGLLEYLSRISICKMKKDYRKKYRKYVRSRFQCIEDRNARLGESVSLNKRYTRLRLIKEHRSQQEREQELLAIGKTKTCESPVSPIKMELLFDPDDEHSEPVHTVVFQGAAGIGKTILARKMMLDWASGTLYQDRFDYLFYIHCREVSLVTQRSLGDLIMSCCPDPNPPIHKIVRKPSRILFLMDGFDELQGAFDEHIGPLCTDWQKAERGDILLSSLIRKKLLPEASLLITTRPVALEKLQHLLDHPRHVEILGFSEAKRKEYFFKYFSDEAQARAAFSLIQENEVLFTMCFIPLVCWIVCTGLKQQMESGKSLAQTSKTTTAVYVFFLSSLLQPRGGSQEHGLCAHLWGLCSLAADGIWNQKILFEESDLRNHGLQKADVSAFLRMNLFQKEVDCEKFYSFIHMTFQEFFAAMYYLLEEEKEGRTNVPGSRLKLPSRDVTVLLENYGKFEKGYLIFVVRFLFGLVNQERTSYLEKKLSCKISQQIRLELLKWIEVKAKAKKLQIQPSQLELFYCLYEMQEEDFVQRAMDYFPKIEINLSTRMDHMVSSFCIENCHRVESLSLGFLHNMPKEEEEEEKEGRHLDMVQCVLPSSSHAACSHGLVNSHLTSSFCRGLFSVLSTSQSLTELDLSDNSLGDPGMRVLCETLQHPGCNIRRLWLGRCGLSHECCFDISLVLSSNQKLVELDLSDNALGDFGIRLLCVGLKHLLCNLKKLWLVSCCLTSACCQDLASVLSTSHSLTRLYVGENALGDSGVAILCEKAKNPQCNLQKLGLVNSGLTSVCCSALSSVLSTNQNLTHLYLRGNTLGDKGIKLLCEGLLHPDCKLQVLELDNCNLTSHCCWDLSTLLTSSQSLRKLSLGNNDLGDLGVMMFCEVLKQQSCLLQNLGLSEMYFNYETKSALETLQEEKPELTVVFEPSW
The experiment can be described thus: Agonistic effect on the expression of IL-1β in THP-1 cells after PMA-induced differentiation (HTRF). The conditions noted are these: IL-1β level, PMA-differentiated THP-1 cells, 6 hours. The format is cell-based. A digest of the protocol:
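THP-1 cells differentiated with 1 μM PMA for 24 h, then replated at 1×10^5 cells/well in RPMI 1640 with 2% FBS. Compounds added for 6 h at 37 °C, 5% CO2. Supernatant IL-1β measured by HTRF; EC50 from four-parameter variable-slope fit.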
(In general: In TR-FRET formats the signal depends on donor and acceptor labels being close together.)

A further experiment concerns the target T2, hTLR7 (Homo sapiens, UniProt Q9NYK1).
T2 construct: host or cells: HEK-hTLR7-NF-κB-Luciferase cells
T2 sequence (Q9NYK1 27-1049): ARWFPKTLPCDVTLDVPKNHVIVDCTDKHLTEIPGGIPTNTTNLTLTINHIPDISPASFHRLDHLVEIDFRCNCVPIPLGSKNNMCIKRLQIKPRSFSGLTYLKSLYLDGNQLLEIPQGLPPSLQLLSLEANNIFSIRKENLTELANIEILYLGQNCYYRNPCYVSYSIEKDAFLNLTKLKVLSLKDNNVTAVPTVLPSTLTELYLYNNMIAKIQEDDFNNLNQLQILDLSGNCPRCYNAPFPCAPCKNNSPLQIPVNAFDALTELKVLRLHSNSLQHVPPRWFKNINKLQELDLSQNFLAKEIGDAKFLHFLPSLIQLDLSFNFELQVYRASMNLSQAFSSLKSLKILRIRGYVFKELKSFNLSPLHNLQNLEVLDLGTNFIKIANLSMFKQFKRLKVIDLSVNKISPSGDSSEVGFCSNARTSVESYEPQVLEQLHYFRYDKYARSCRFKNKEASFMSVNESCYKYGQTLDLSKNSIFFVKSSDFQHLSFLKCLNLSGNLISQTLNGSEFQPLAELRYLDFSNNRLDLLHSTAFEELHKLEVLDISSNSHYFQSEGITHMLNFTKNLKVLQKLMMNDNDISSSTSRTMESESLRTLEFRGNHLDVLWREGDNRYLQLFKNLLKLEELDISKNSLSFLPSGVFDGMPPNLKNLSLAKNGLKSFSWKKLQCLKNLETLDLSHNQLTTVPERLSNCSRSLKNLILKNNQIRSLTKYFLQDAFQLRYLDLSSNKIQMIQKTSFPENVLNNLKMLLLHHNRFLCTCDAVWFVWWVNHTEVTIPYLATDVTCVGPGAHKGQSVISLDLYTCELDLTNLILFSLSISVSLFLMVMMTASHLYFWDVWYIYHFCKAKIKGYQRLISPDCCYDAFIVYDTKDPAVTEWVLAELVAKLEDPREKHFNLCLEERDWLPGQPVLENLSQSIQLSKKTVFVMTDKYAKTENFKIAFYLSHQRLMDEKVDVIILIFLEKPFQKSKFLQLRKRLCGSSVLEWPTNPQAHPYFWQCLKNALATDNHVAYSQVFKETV
The experiment can be described thus: Agonistic effect on hTLR7, HEK-hTLR7-NF-κB-Luciferase reporter cells. The format is cell-based. The conditions noted are these: 16 hours. A digest of the protocol:
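HEK cells carrying human TLR7 and NF-κB-luciferase reporter, […] in DMEM with 10% FBS, exposed to compound for 16 h at 37 °C, 5% CO2; serves as specificity counterscreen to NLRP3 activity. Luminescence (RLU) after 5 min with luciferase reagent; EC50 by four-parameter variable-slope fit.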
Background: In a reporter assay the amount or activity of a reporter protein is the signal.

SMILES strings stand for the structures. A value given as a limit tells only on which side of the number the result lay.

Regarding `CC(C)(O)CNc1cc(N)nc2cc(-c3ccn[nH]3)sc12` [Compound 28, (1-(5-amino-2-(1H-pyrazol-5-yl)thieno[3,2-b]pyridin-7-yl)amino)-2-methyl-2-propanol], the results for the concentration for a half-maximal effect (EC50) at hNLRP3 inflammasome and on hTLR7 were 0.54 µM and above 100000 nM, respectively.

Take `C[C@@H](O)CNc1cc(N)nc2cc(-c3ccn[nH]3)sc12` [Compound 29]: the half-maximal effective concentration (EC50) is 0.16 µM at hNLRP3 inflammasome and above 100000 nM on hTLR7.

For the molecule `Nc1cc(N[C@@H]2CC[C@@H](O)C2)c2sc(-c3ccn[nH]3)cc2n1` [Compound 30, (1R,3R)-3-((5-amino-2-(1H-pyrazol-5-yl)thieno[3,2-b]pyridin-7-yl)amino)cyclopentanol], the figures for the EC50 on hNLRP3 inflammasome and at hTLR7 were 0.03 µM and above 100000 nM, respectively.

Consider `Nc1cc(NC(CCO)c2ccccc2)c2sc(-c3ccn[nH]3)cc2n1` (stereo not shown) [Compound 123, 3-((5-amino-2-(1H-pyrazol-5-yl)thieno[3,2-b]pyridin-7-yl)amino)-3-phenyl-1-propanol], for which the results for the half-maximal effective concentration (EC50) at hNLRP3 inflammasome and on hTLR7 were 0.1 µM and above 100000 nM, respectively.

Regarding `Nc1cc(NCC2CCC2)c2sc(-c3ccn[nH]3)cc2n1` [Compound 126, N^7-(cyclobutylmethyl)-2-(1H-pyrazol-5-yl)thieno[3,2-b]pyridine-5,7-diamine], the EC50 is 0.35 µM on hNLRP3 inflammasome and above 100000 nM on hTLR7.

On to `CN(CCCO)c1cc(N)nc2cc(-c3ccn[nH]3)sc12` [Compound 127, 3-((5-amino-2-(1H-pyrazol-5-yl)thieno[3,2-b]pyridin-7-yl)(methyl)amino)-1-propanol], for which the figures for the EC50 on hNLRP3 inflammasome and on hTLR7 were 0.11 µM and above 100000 nM, respectively.

For the molecule `C[C@H]1CC[C@H](Nc2cc(N)nc3cc(-c4ccn[nH]4)sc23)CC1` [Compound 128, N^7-((1R,4R)-4-methylcyclohexyl)-2-(1H-pyrazol-5-yl)thieno[3,2-b]pyridine-5,7-diamine], the EC50 is 0.11 µM at hNLRP3 inflammasome and above 100000 nM on hTLR7.

Regarding `C[C@]1(O)C[C@@H](Nc2cc(N)nc3cc(-c4ccn[nH]4)sc23)C1` [Compound 129, (1s,3s)-3-((5-amino-2-(1H-pyrazol-5-yl)thieno[3,2-b]pyridin-7-yl)amino)-1-methylcyclobutanol], the half-maximal effective concentration (EC50) on hNLRP3 inflammasome was 0.03 µM; on hTLR7, above 100000 nM.

Consider `C[C@H](Nc1cc(N)nc2cc(-c3ccn[nH]3)sc12)c1cccc(C(F)(F)F)c1` [Compound 131, (S)-2-(1H-pyrazol-5-yl)-N^7-(1-(3-(trifluoromethyl)phenyl)ethyl)thieno[3,2-b]pyridine-5,7-diamine], for which the EC50 on hNLRP3 inflammasome was 0.06 µM; at hTLR7 it was above 100000 nM.

On to `CC[C@@H](CO)Nc1cc(N)nc2cc(-c3ccn[nH]3)sc12` [Compound 132, (S)-2-((5-amino-2-(1H-pyrazol-5-yl)thieno[3,2-b]pyridin-7-yl)amino)-1-butanol], for which the results for the EC50 on hNLRP3 inflammasome and at hTLR7 were 3.48 µM and above 100000 nM, respectively.

As for `COC[C@@H](C)Nc1cc(N)nc2cc(-c3ccn[nH]3)sc12` [Compound 133, (R)—N^7-(1-methoxyprop-2-yl)-2-(1H-pyrazol-5-yl)thieno[3,2-b]pyridine-5,7-diamine], the half-maximal effective concentration (EC50) on hNLRP3 inflammasome is 0.58 µM; at hTLR7, above 100000 nM.

Take `Cc1cccnc1CNc1cc(N)nc2cc(-c3ccn[nH]3)sc12` [Compound 134, N^7-((3-methylpyridin-2-yl)methyl)-2-(1H-pyrazol-5-yl)thieno[3,2-b]pyridine-5,7-diamine]: the concentration giving a half-maximal response (EC50) at hNLRP3 inflammasome was 0.03 µM; at hTLR7 it was above 100000 nM.

With `Nc1cc(NCCN2CCCC2=O)c2sc(-c3ccn[nH]3)cc2n1` [Compound 135, 1-(2-((5-amino-2-(1H-pyrazol-5-yl)thieno[3,2-b]pyridin-7-yl)amino)ethyl)pyrrolidin-2-one], the 50% effective concentration (EC50) is 0.32 µM on hNLRP3 inflammasome and above 100000 nM on hTLR7.

Consider `Nc1cc(NCC(CO)CO)c2sc(-c3ccn[nH]3)cc2n1` [Compound 136], for which the concentration giving a half-maximal response (EC50) at hNLRP3 inflammasome was 0.05 µM; on hTLR7, above 100000 nM.

As for `CNC(=O)CNc1cc(N)nc2cc(-c3ccn[nH]3)sc12` [Compound 137, 2-((5-amino-2-(1H-pyrazol-5-yl)thieno[3,2-b]pyridin-7-yl)amino)-N-methylacetamide], the EC50 at hNLRP3 inflammasome is 0.95 µM; at hTLR7 it was above 100000 nM.

For the molecule `Nc1cc(NCC(=O)NC2CC2)c2sc(-c3ccn[nH]3)cc2n1` [Compound 138, 2-((5-amino-2-(1H-pyrazol-5-yl)thieno[3,2-b]pyridin-7-yl)amino)-N-cyclopropylacetamide], the EC50 at hNLRP3 inflammasome is 0.2 µM; at hTLR7 it was above 100000 nM.

With `CN(CCO)c1cc(N)nc2cc(-c3ccn[nH]3)sc12` [Compound 139, 2-((5-amino-2-(1H-pyrazol-5-yl)thieno[3,2-b]pyridin-7-yl)(methyl)amino)ethanol], the half-maximal effective concentration (EC50) on hNLRP3 inflammasome was 0.07 µM; on hTLR7, above 100000 nM.

Consider `CCN(CCNc1cc(N)nc2cc(-c3ccn[nH]3)sc12)C(=O)Cc1cccc(C)c1` [Compound 140, N-(2-((5-amino-2-(1H-pyrazol-5-yl)thieno[3,2-b]pyridin-7-yl)amino)ethyl)-N-ethyl-2-(m-tolyl)acetamide], for which the EC50 was 0.5 µM on hNLRP3 inflammasome and above 100000 nM at hTLR7.

For `CC(C)CNc1cc(N)nc2cc(-c3ccn[nH]3)sc12` [Compound 141, N^7-isobutyl-2-(1H-pyrazol-5-yl)thieno[3,2-b]pyridin-5,7-diamine], the EC50 is 0.03 µM at hNLRP3 inflammasome and above 100000 nM on hTLR7.

With `Nc1cc(N[C@H]2[C@@H]3CNC[C@@H]32)c2sc(-c3ccn[nH]3)cc2n1` [Compound 142, N^7-((1R,5S,6S)-3-azabicyclo[3.1.0]hex-6-yl)-2-(1H-pyrazol-5-yl)thieno[3,2-b]pyridin-5,7-diamine], the EC50 at hNLRP3 inflammasome was 0.14 µM; on hTLR7, above 100000 nM.

On to `Nc1cc(NC2CCC(F)(F)CC2)c2sc(-c3ccn[nH]3)cc2n1` [Compound 143, N^7-(4,4-difluorocyclohexyl)-2-(1H-pyrazol-5-yl)thieno[3,2-b]pyridin-5,7-diamine], for which the EC50 is 0.08 µM at hNLRP3 inflammasome and above 100000 nM on hTLR7.

Turning to `CC(C)C[C@H](CO)Nc1cc(N)nc2cc(-c3ccn[nH]3)sc12` [Compound 144, (R)-2-((5-amino-2-(1H-pyrazol-5-yl)thieno[3,2-b]pyridin-7-yl)amino)-4-methyl-1-pentanol], the results for the 50% effective concentration (EC50) on hNLRP3 inflammasome and at hTLR7 were 0.38 µM and above 100000 nM, respectively.

Consider `CCC(=O)N(CC)CCNc1cc(N)nc2cc(-c3ccn[nH]3)sc12` [Compound 145, N-(2-((5-amino-2-(1H-pyrazol-5-yl)thieno[3,2-b]pyridin-7-yl)amino)ethyl)-N-ethylpropionamide], for which the concentration giving a half-maximal response (EC50) was 0.31 µM at hNLRP3 inflammasome and above 100000 nM on hTLR7.

Consider `CCN(CCNc1cc(N)nc2cc(-c3ccn[nH]3)sc12)C(=O)C1CC1` [Compound 146, N-(2-((5-amino-2-(1H-pyrazol-5-yl)thieno[3,2-b]pyridin-7-yl)amino)ethyl)-N-ethylcyclopropyl formamide], for which the EC50 was 0.29 µM at hNLRP3 inflammasome and above 100000 nM at hTLR7.

Turning to `Nc1cc(N[C@H]2CC[C@H](O)CC2)c2sc(-c3ccn[nH]3)cc2n1` [Compound 147, (1R,4R)-4-((5-amino-2-(1H-pyrazol-5-yl)thieno[3,2-b]pyridin-7-yl)amino)cyclohexanol], the figures for the half-maximal effective concentration (EC50) at hNLRP3 inflammasome and on hTLR7 were 0.03 µM and above 100000 nM, respectively.

As to `C[C@@H]1CN(c2cc(N)nc3cc(-c4ccn[nH]4)sc23)C[C@@H](C)O1` [Compound 148, 7-((2R,6R)-2,6-dimethylmorpholino)-2-(1H-pyrazol-5-yl)thieno[3,2-b]pyridine-5-amine], the figures for the EC50 on hNLRP3 inflammasome and at hTLR7 were 0.008 µM and above 100000 nM, respectively.

Regarding `Cc1noc(C)c1CNc1cc(N)nc2cc(-c3ccn[nH]3)sc12` [Compound 149, N^7-((3,5-dimethylisoxazol-4-yl)methyl)-2-(1H-pyrazol-5-yl)thieno[3,2-b]pyridine-5,7-diamine], the results for the concentration for a half-maximal effect (EC50) on hNLRP3 inflammasome and at hTLR7 were 0.04 µM and above 100000 nM, respectively.

`Nc1cc(NCCCN2CCCC2=O)c2sc(-c3ccn[nH]3)cc2n1` [Compound 150]: the figures for the concentration for a half-maximal effect (EC50) on hNLRP3 inflammasome and on hTLR7 were 0.16 µM and above 100000 nM, respectively.

Consider `Cc1c(-c2cc[nH]n2)sc2c(NCC(C)(C)CO)cc(N)nc12` [Compound 151], for which the EC50 on hNLRP3 inflammasome was 3.66 µM; on hTLR7, above 100000 nM.
